Values of other authors in US20110257262A1, “CRYSTALLINE INGENOL MEBUTATE” (LEO PHARMA A/S, priority 2010, published 2011).

Assays:
skin cancer cells = settings: via rapid mitochondrial disruption and cell death by primary necrosis
normal cells = settings: compared with skin cancer cells

## C/C=C(/C)C(=O)O[C@H]1C(C)=C[C@]23C(=O)[C@@H](C=C(CO)[C@@H](O)[C@]12O)[C@H]1[C@@H](C[C@H]3C)C1(C)C [Ingenol mebutate, (1aR,2S,5R,5aS,6S,8aS,9R,10aR)-5,5a-dihydroxy-4-(hydroxy-methyl)-1,1,7,9-tetramethyl-11-oxo-1a,2,5,5a,6,9,10,10a-octahydro-1H2,8a-methanocyclopenta[a]cyclopropa[e]cyclodecen-6-yl(2Z)-2-methylbut-2-enoate]
Skin cancer cells
  toxicity for skin cancer cells: highly toxic
Normal cells
  sensitivity of normal cells: less sensitive
